Test results taken from patent publication US11535630B2, “Apelin receptor (APJ) agonists and uses thereof” (Research Triangle Institute, priority 2015, dated 2022).
Where a name gives a salt, the structure may show the parent alone.

These compounds were tested against T1, apelin receptor (APJ) (Homo sapiens, UniProt P35414) (assay: In vitro apelin agonist activity (methods of Giddings et al., Apelin-13 as positive control)). Details: EC50 (nM) Ave, in vitro apelin agonist activity, methods of Giddings et al., Apelin-13 as positive control.
T1 sequence (P35414 1-380): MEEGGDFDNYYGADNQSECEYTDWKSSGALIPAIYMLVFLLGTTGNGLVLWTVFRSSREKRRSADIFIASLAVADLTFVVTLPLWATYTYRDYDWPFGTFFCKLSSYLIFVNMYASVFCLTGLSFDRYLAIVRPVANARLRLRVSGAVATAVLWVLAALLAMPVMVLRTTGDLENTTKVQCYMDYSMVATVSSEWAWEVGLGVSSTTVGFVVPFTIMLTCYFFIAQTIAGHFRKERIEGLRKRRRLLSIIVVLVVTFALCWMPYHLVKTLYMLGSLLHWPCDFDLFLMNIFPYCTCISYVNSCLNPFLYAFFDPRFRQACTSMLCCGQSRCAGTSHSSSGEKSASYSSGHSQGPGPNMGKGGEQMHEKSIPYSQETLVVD
Assay type: cell-based
Excerpt: Characterization of the Apelin Agonist Activity of the Compounds
1:39-47, the contents of which are hereby incorporated by reference in its entirety. Using the methods described in Giddings et al. and Apelin-13 as a positive control.

Compound	EC50 [nM]
COc1cccc(OC)c1-c1cc(C(=O)N[C@@H](CCC2CCCCC2)CC(=O)O)nn1C1CCCCCCC1 [compound 647, (3S)-5-cyclohexyl-3-{[1-cyclooctyl-5-(2,6-dimethoxyphenyl)-1H-pyrazol-3-yl]formamido}pentanoic acid]	> 10000

Same assay, conditions: in vitro apelin agonist activity, methods of Giddings et al., Apelin-13 as positive control; read-out: EC50 (nM) Ave

Compound	EC50 [nM]
COc1cccc(OC)c1-c1cc(C(=O)N[C@@H](CCc2ccccc2)CC(=O)O)nn1-c1ccc(F)cc1 [compound 299, (3S)-3-{[5-(2,6-dimethoxyphenyl)-1-(4-fluorophenyl)-1H-pyrazol-3-yl]formamido}-5-phenylpentanoic acid]	2910
COc1cccc(OC)c1-c1cc(C(=O)N[C@H](CC#N)CCc2ccccc2)nn1C1CCCC1 [compound 391, N-[(2S)-1-cyano-4-phenylbutan-2-yl]-1-cyclopentyl-5-(2,6-dimethoxyphenyl)-1H-pyrazole-3-carboxamide]	6340
O=C(CCNC(=O)c1cc(-c2ccccc2C(F)(F)F)n(C2CCCC2)n1)Nc1nccs1 [compound 449, 3-({1-cyclopentyl-5-[2-(trifluoromethyl)phenyl]-1H-pyrazol-3-yl}formamido)-N-(1,3-thiazol-2-yl)propanamide]	12700
COc1cccc(OC)c1-c1cc(C(=O)N[C@H](CC(=O)O)Cc2ccccc2)nn1CC(C)C [compound 297, (3S)-3-{[5-(2,6-dimethoxyphenyl)-1-(2-methylpropyl)-1H-pyrazol-3-yl]formamido}-4-phenylbutanoic acid]	> 10000
O=C(C[C@H](CCN1CCC(F)(F)CC1)NC(=O)c1cc(-c2ccccc2C(F)(F)F)n(C2CCCC2)n1)NCc1ccccc1 [compound 439, (3S)-N-benzyl-3-({1-cyclopentyl-5-[2-(trifluoromethyl)phenyl]-1H-pyrazol-3-yl}formamido)-5-(4,4-difluoropiperidin-1-yl)pentanamide]	920
CN(CC[C@@H](CC(=O)NC1CCC1)NC(=O)c1cc(-c2ccccc2C(F)(F)F)n(C2CCCC2)n1)C1CCC1 [compound 506, (3S)-N-cyclobutyl-5-[cyclobutyl(methyl)amino]-3-({1-cyclopentyl-5-[2-(trifluoromethyl)phenyl]-1H-pyrazol-3-yl}formamido)pentanamide]	32
COc1cccc(OC)c1-c1cc(C(=O)N[C@@H](CCc2ccccc2)CC(=O)NCc2nnn[nH]2)nn1C1CCCC1 [compound 383, (3S)-3-{[1-cyclopentyl-5-(2,6-dimethoxyphenyl)-1H-pyrazol-3-yl]formamido}-5-phenyl-N-(1H-1,2,3,4-tetrazol-5-ylmethyl)pentanamide]	5180
COc1ccccc1-c1cc(C(=O)N[C@@H](CCN2CCCCC2)CC(=O)NC2CCC2)nn1C1CCCC1 [compound 361, (3S)-N-cyclobutyl-3-{[1-cyclopentyl-5-(2-methoxyphenyl)-1H-pyrazol-3-yl]formamido}-5-(piperidin-1-yl)pentanamide]	234
COCCN(C)C(=O)[C@H](COc1ccccc1)NC(=O)c1cc(-c2ccccc2C(F)(F)F)n(C2CCCC2)n1 [compound 570, (2S)-2-({1-cyclopentyl-5-[2-(trifluoromethyl)phenyl]-1H-pyrazol-3-yl}formamido)-N-(2-methoxyethyl)-N-methyl-3-phenoxypropanamide]	4250
CC1(C)CN(CC[C@@H](CC(=O)O)NC(=O)c2cc(-c3ccccc3C(F)(F)F)n(C3CCCC3)n2)C1 [compound 588, (3S)-3-({1-cyclopentyl-5-[2-(trifluoromethyl)phenyl]-1H-pyrazol-3-yl]formamido)-5-(3,3-dimethylazetidin-1-yl)pentanoic acid]	502
O=C(C[C@H](CCN1CCC(F)(F)CC1)NC(=O)c1cc(-c2ccccc2C(F)(F)F)n(C2CCCC2)n1)NCC1CCCCC1 [compound 440, (3S)-N-(cyclohexylmethyl)-3-({1-cyclopentyl-5-[2-(trifluoromethyl)phenyl]-1H-pyrazol-3-yl]formamido)-5-(4,4-difluoropiperidin-1-yl)pentanamide]	301
O=C(O)C[C@H](CCNC1(C(F)(F)F)CCCC1)NC(=O)c1cc(-c2ccccc2C(F)(F)F)n(C2CCCC2)n1 [compound 615, (3S)-3-({1-cyclopentyl-5-[2-(trifluoromethyl)phenyl]-1H-pyrazol-3-yl}formamido)-5-{[1-(trifluoromethyl)cyclopentyl]amino}pentanoic acid trifluoroacetate]	353
CC(C)C[C@H](NC(=O)c1cc(-c2ccccc2C(F)(F)F)n(C2CCCC2)n1)C(=O)O [compound 527, (2S)-2-({1-cyclopentyl-5-[2-(trifluoromethyl)phenyl]-1H-pyrazol-3-yl}formamido)-4-methylpentanoic acid]	> 10000
CC(F)(F)c1ccccc1-c1cc(C(=O)N[C@@H](CCN2C[C@H](F)[C@@H](F)C2)CC(=O)O)nn1C1CCCC1 (stereo in doubt) [compound 594, (3S)-3-({1-cyclopentyl-5-[2-(1,1-difluoroethyl)phenyl]-1H-pyrazol-3-yl}formamido)-5-[trans-3,4-difluoropyrrolidin-1-yl]pentanoic acid]	44
COc1cccc(OC)c1-c1cc(C(=O)N[C@@H](CCc2ccccc2)CC(N)=O)nn1C1CCCC1 [compound 392, (3S)-3-{[1-cyclopentyl-5-(2,6-dimethoxyphenyl)-1H-pyrazol-3-yl]formamido}-5-phenylpentanamide]	> 10000
O=C(C[C@H](CCN1CCCC(F)(F)C1)NC(=O)c1cc(-c2ccccc2C(F)(F)F)n(C2CCCC2)n1)Nc1nccs1 [compound 426, (3S)-3-({1-cyclopentyl-5-[2-(trifluoromethyl)phenyl]-1H-pyrazol-3-yl}formamido)-5-(3,3-difluoropiperidin-1-yl)-N-(1,3-thiazol-2-yl)pentanamide]	10.6
O=C(O)C[C@H](CCN1CC(F)(F)C(F)(F)C1)NC(=O)c1cc(-c2ccccc2C(F)(F)F)n(C2CCCC2)n1 [compound 574, (3S)-3-({1-cyclopentyl-5-[2-(trifluoromethyl)phenyl]-1H-pyrazol-3-yl}formamido)-5-(3,3,4,4-tetrafluoropyrrolidin-1-yl)pentanoic acid]	981
O=C(N[C@@H](CCN1C[C@H](F)[C@@H](F)C1)Cc1nnn[nH]1)c1cc(-c2ccccc2C(F)(F)F)n(C2CCCC2)n1 [compound 630]	24
COc1cccc(OC)c1-c1cc(C(=O)N[C@@H](CCc2ccccc2)CC(=O)Nc2nccs2)nn1C1CCCC1 [compound 380, (3S)-3-{[1-cyclopentyl-5-(2,6-dimethoxyphenyl)-1H-pyrazol-3-yl]formamido}-5-phenyl-N-(1,3-thiazol-2-yl)pentanamide]	94
O=C(O)C[C@H](CCN1CC(F)CC(F)C1)NC(=O)c1cc(-c2ccccc2C(F)(F)F)n(C2CCCC2)n1 (stereo partly drawn) [compound 639, (3S)-3-({1-cyclopentyl-5-[2-(trifluoromethyl)phenyl]-1H-pyrazol-3-yl}formamido)-5-(3,5-difluoropiperidin-1-yl)pentanoic acid]	40
O=C(N[C@@H]1CC(=O)N(c2ccc(F)cc2)C1=O)c1cc(-c2ccccc2C(F)(F)F)n(C2CCCC2)n1 [compound 563, 1-cyclopentyl-N-[(3R)-1-(4-fluorophenyl)-2,5-dioxopyrrolidin-3-yl]-5-[2-(trifluoromethyl)phenyl]-1H-pyrazole-3-carboxamide]	> 10000
